Reference: ChEMBL document CHEMBL4699392, “Application of triazoles as bioisosteres and linkers in the development of microtubule targeting agents” (RSC Med Chem, 2020)
pIC50: −log10 of the molar value. Values belong to the molecule of their own block, whether it stands above or below them.

How the values were obtained:
[1] = Cytotoxicity against Breast cancer cells (unknown origin) assessed as reduction in cell viability incubated for 72 hrs by MTT assay; format: functional, cell-based; details: Breast cancer cell line
[2] = Cytotoxicity against Ovarian cancer cell line (unknown origin) assessed as reduction in cell viability incubated for 72 hrs by MTT assay; format: functional
[3] = Cytotoxicity against Cervical carcinoma cell line (unknown origin) assessed as reduction in cell viability incubated for 72 hrs by MTT assay; format: functional
[4] = Cytotoxicity against Prostate tumor cell line (unknown origin) assessed as reduction in cell viability incubated for 72 hrs by MTT assay; format: functional
[5] = Cytotoxicity against Leukemia cell line (unknown origin) assessed as reduction in cell viability incubated for 72 hrs by MTT assay; format: functional
HT-1080 [6] = assay: Cytotoxicity against human HT-1080 cells assessed as reduction in cell viability incubated for 24 hrs by MTT assay; format: functional, cell-based; details: HT-1080, 24 h
A549 [7] = assay: Cytotoxicity against human A549 cells assessed as reduction in cell viability incubated for 24 hrs by MTT assay; format: functional, cell-based; details: A549, 24 h
SGC-7901 [8] = assay: Cytotoxicity against human SGC-7901 cells assessed as reduction in cell viability incubated for 24 hrs by MTT assay; format: functional, cell-based; details: SGC-7901, 24 h
Tubulin [9] = assay: Inhibition of tubulin polymerization (unknown origin) measured for every 1 min interval for 90 mins by fluorescence based assay; format: protein-complex assay, Homo sapiens
SGC-7901 [10] = assay: Cytotoxicity against human SGC-7901 cells; format: functional, cell-based
A549 [11] = assay: Cytotoxicity against human A549 cells; format: functional, cell-based
HT-1080 [12] = assay: Cytotoxicity against human HT-1080 cells; format: functional, cell-based
B16 = assay: Cytotoxicity against mouse B16 cells assessed as reduction in cell viability incubated for 72 hrs by MTT assay; format: functional, cell-based; details: B16, 72 h
Tubulin [13] = assay: Inhibition of tubulin polymerization (unknown origin) incubated for 1 hr by fluorescence based assay; format: protein-complex assay, Homo sapiens
[14] = Inhibition of bovine brain tubulin polymerization by spectrometric analysis; format: tissue-based, Bos taurus
A549 [15] = assay: Cytotoxicity against human A549 cells assessed as reduction in cell viability incubated for 48 hrs by MTT assay; format: functional, cell-based; details: A549, 48 h
HeLa = assay: Cytotoxicity against human HeLa cells assessed as reduction in cell viability incubated for 48 hrs by MTT assay; format: functional, cell-based
Sus scrofa = organism: Sus scrofa; assay: Displacement of fluorescein-colchicine from pig brain tubulin incubated for 1 hr by fluorescence based gel exclusion assay; format: tissue-based; details: concentration not given here
BJAB [16] = assay: Cytotoxicity against human BJAB cells assessed as reduction in cell viability incubated for 24 hrs by CASY cell counter method; format: functional, cell-based
BJAB [17] = assay: Cytotoxicity against human BJAB cells; format: functional, cell-based
HT-29 = assay: Cytotoxicity against human HT-29 cells assessed as reduction in cell viability incubated for 24 hrs by MTT assay; format: functional, cell-based; details: HT-29, 24 h
MCF7 = assay: Cytotoxicity against human MCF7 cells assessed as reduction in cell viability incubated for 24 hrs by MTT assay; format: functional, cell-based; details: MCF7, 24 h

SMILES: COc1cc(-c2nncn2-c2ccc3c(ccn3C)c2)cc(OC)c1OC
pIC50 [1]: 8.68
pIC50 [2]: 8.68
pIC50 [3]: 8.68
pIC50 [4]: 8.68
pIC50 [5]: 8.68

SMILES: COc1cc(/C(=N/O)c2cnn(-c3ccccc3)n2)cc(OC)c1OC
pIC50 (SGC-7901 [10]): 6.92
pIC50 (A549 [11]): 6.92
pIC50 (HT-1080 [12]): 6.92

SMILES: COc1ccc(/C=C\c2cc(OC)c(OC)c(OC)c2)cc1O [COMBRETASTATIN A4]
pIC50 (B16): 4.25

SMILES: CCCCCCCCCCCCCCCCCC(=O)OCc1cn(C2CCc3cc(OC)c(OC)c(OC)c3-c3ccc(OC)c(=O)cc32)nn1 (centres undefined)
pIC50 (BJAB [17]): 8.40

SMILES: COc1ccc(S(=O)(=O)Nc2cccnc2Nc2ccc(O)cc2)cc1 [ABT-751]
pIC50 (A549 [15]): 5.79
pIC50 (HeLa): 5.66

SMILES: CCCCCCCC/C=C\CCCCCCCC(=O)OCc1cn(C2CCc3cc(OC)c(OC)c(OC)c3-c3ccc(OC)c(=O)cc32)nn1 (centres undefined)
pIC50 (BJAB [17]): 8.22

Further lines, with some results ahead:

pIC50 (Tubulin [9]): 5.80
SMILES: COc1cccc(-c2nnc3n2N=C(c2ccc(OC)c(N)c2)CS3)c1
pIC50 (HT-1080 [6]): 7.96
pIC50 (A549 [7]): 7.96
pIC50 (SGC-7901 [8]): 7.96

pIC50 (Tubulin [13]): 5.74
SMILES: O=C(c1cn(Cc2cccc(Oc3ccccc3)c2)nn1)c1cccnc1Nc1ccc(F)cc1

pIC50 [14]: 6.18
SMILES: COc1cc(C(=O)n2nc(-c3ccc(C)cc3)nc2N)cc(OC)c1OC

pIC50 (Tubulin [13]): 5.69
SMILES: COc1cc(Nc2ncccc2NC(=O)c2cn(Cc3cccc(Oc4ccccc4)c3)nn2)cc(OC)c1
pIC50 (A549 [15]): 5.99
pIC50 (HeLa): 5.88

inhibition (Sus scrofa): > 80%
SMILES: CCCCCCCCCCCC(=O)OCc1cn(C2CCc3cc(OC)c(OC)c(OC)c3-c3ccc(OC)c(=O)cc32)nn1 (centres undefined)
pIC50 (BJAB [16]): 8.00

pIC50 (Tubulin [13]): 6.77
SMILES: COc1cc(Cc2nnc(S)n2/N=C\c2cccc(Cl)c2Cl)cc(OC)c1OC
pIC50 (HT-1080 [6]): 4.90
pIC50 (HT-29): 5.37
pIC50 (MCF7): 5.48
pIC50 (A549 [7]): 5.01
